# Patent US20080207751A1, “Sulindac Derivatives for Treatment of Cancer” (Sulfidris s.r.l., priority 2005, published 2008)
# Read-outs that look alike come from different tables or passages of the source.
# How the values were obtained:
# Caco 2 cells = assay: Anti-proliferative activity in Caco 2 cells; type: cell-based
# Method: In order to analyze sulindac derivatives in combination therapies for treatment of colon cancer, the compound of example 4 was tested in Caco 2 cell lines comparatively with other known therapeutic agents at different concentrations.
# The results of the treatment with 5-FU, celecoxib and docetaxel in Caco 2 cell are depicted in the Table 3 below reported.
# In another experiment the compound of example 4 at IC50 concentration was incubated with submaximal concentrations of the anti-tumoral standard agents.
# [1] = system: Aberrant crypt foci (ACF); assay: Aberrant crypt foci (ACF) induced by 1,2-dimethylhydrazine in rats; type: in vivo; details: DMH-induced ACF, Sprague-Dawley rats; equivalent anti-inflammatory doses, twice daily orogastric gavage for 3 weeks
# Method: Aberrant crypt foci (ACF) were induced in Sprague-Dawley rats by using 1,2-dimethylhydrazine (DMH). Test agents or vehicle were then administered for 3 weeks, twice daily through orogastric gavage.
# At the end of this period, the number and multiplicity of ACF were determined.
# [2] = Five-day oral safety study in rats (deaths, gastrointestinal ulcers at autopsy); type: in vivo; details: male rats, once daily by gavage for five days; sulindac sulfoxide 20 mg/kg, compound example 1 36 mg/kg
# Method: Thirty male rats (150-200 g) were divided into three groups of 10 animals/group and treated with vehicle, sulindac sulfoxide (20 mg/kg) and the compound example 1 (36 mg/kg) for five days once daily by gavage.
# At the fifth day survival animals were sacrificed 6 hr after the treatment by an overdose of ether, and autopsied to detect any pathological changes, particularly in the gastrointestinal tract.
IC50 (Caco 2 cells; Homo sapiens) [µM],Compound,reduction of the number of ACF [1] [%],further results
55,"CC1=C(CC(=O)OCCSS(C)(=O)=O)c2cc(F)ccc2/C1=C\c1ccc([S+](C)[O-])cc1 (centres unmarked) [Example 4, (Z)-5-Fluoro-2-methyl-1-[[4-(methylsulfinyl)phenyl]methylene]-1H-indene-3-acetic acid 2-methanesulfonylsulfanylethyl ester]",,anti-proliferative activity in combination with anti-tumoral standard agents (Caco 2 cells; compound at IC50 concentration incubated with submaximal concentrations of standard agents): marked potentiation
0.005,CC(=O)O[C@@]12CO[C@@H]1C[C@H](O)[C@@]1(C)C(=O)[C@H](O)C3=C(C)[C@@H](OC(=O)[C@H](O)[C@@H](NC(=O)OC(C)(C)C)c4ccccc4)C[C@@](O)([C@@H](OC(=O)c4ccccc4)[C@H]21)C3(C)C [Docetaxel],,
,"CC1=C(CC(=O)O)c2cc(F)ccc2/C1=C\c1ccc(S(C)(=O)=O)cc1 [sulindac sulfone, (Z)-5-Fluoro-2-methyl-1-[[4-(methylsulfone)phenyl]methylene]-1H-indene-3-acetic acid]",36,
,"CC1=C(CC(=O)Oc2ccc(-c3cc(=S)ss3)cc2)c2cc(F)ccc2/C1=C\c1ccc(S(C)(=O)=O)cc1 [Example 3, (Z)-5-Fluoro-2-methyl-1-[[4-(methylsulfone)phenyl]methylene]-1H-indene-3-acetic acid 4-(thioxo-5H-[1,2]dithiol-3-yl)-phenyl ester]",45,
,"CC1=C(CC(=O)OCCSS(C)(=O)=O)c2cc(F)ccc2/C1=C\c1ccc(S(C)(=O)=O)cc1 [Example 8, (Z)-5-Fluoro-2-methyl-1-[[4-(methylsulfone)phenyl]methylene]-1H-indene-3-acetic acid 2-methanesulfonylsulfanylethyl ester]",60,
60,Cc1ccc(-c2cc(C(F)(F)F)nn2-c2ccc(S(N)(=O)=O)cc2)cc1 [celecoxib],22,
,"CC1=C(CC(=O)O)c2cc(F)ccc2/C1=C\c1ccc([S+](C)[O-])cc1 (centres unmarked) [Sulindac sulfoxide, (Z)-5-Fluoro-2-methyl-1-[[4-(methylsulfinyl)phenyl]methylene]-1H-indene-3-acetic acid]",46,% deaths [2]: 70%; % gastrontestinal ulcers [2]: 100%
,"CC1=C(CC(=O)Oc2ccc(-c3cc(=S)ss3)cc2)c2cc(F)ccc2/C1=C\c1ccc([S+](C)[O-])cc1 (centres unmarked) [Example 1, (Z)-5-Fluoro-2-methyl-1-[[4-(methylsulfinyl)phenyl]methylene]-1H-indene-3-acetic acid 4-(thioxo-5H-1-[1,2]dithiol-3-yl)-phenyl ester]",,% deaths [2]: 0%; % gastrontestinal ulcers [2]: 10%
,O=c1[nH]cc(F)c(=O)[nH]1 [Example 5-FU],,IC50 (Caco 2 cells): 28 µM
